In PubChem BioAssay AID248 (DTP/NCI, 2004):
Where “and” joins values, the source holds several entries; their conditions need not be identical. Equal entries are not always repeated. Toxic doses and inconclusive results are not listed.

System: L1210 leukemia ip in BDF1 mice, survival T/C
Assay: NCI In Vivo Anticancer Drug Screen. Data for tumor model L1210 Leukemia (intraperitoneal) in B6D2F1 (BDF1) mice
Details: endpoint: mean survival time, higher = longer survival
Method in brief: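 Tumor was transplanted into mice, which were then dosed with test compound or vehicle alone. Survival was recorded for each group, and the treated figure was expressed relative to the control figure.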

[1] = dose: 100.0 mg/kg/injection, schedule: Q04DX003 (ip), vehicle: Klucel (hydroxypropylcellulose) (HPC)
[2] = dose: 200.0 mg/kg/injection, schedule: Q04DX003 (ip), vehicle: Klucel (hydroxypropylcellulose) (HPC)
[3] = dose: 400.0 mg/kg/injection, schedule: Q04DX003 (ip), vehicle: Klucel (hydroxypropylcellulose) (HPC)
[4] = dose: 50.0 mg/kg/injection, schedule: Q01DX009 (ip), vehicle: saline with Tween-80
[5] = dose: 100.0 mg/kg/injection, schedule: Q01DX009 (ip), vehicle: saline with Tween-80
[6] = dose: 200.0 mg/kg/injection, schedule: Q01DX009 (ip), vehicle: saline with Tween-80
[7] = dose: 100.0 mg/kg/injection, schedule: Q04DX003 (ip), vehicle: saline with Tween-80
[8] = dose: 200.0 mg/kg/injection, schedule: Q04DX003 (ip), vehicle: saline with Tween-80
[9] = dose: 100.0 mg/kg/injection, schedule: Q01DX009 (ip), vehicle: other
[10] = dose: 200.0 mg/kg/injection, schedule: Q01DX009 (ip), vehicle: other
[11] = dose: 100.0 mg/kg/injection, schedule: Q04DX003 (ip), vehicle: saline
[12] = dose: 200.0 mg/kg/injection, schedule: Q04DX003 (ip), vehicle: saline
[13] = dose: 400.0 mg/kg/injection, schedule: Q04DX003 (ip), vehicle: saline

C=CC(COC(C)=O)N1CC1 (centres undefined) (tested in a mixture with another compound)
T/C (dose: 30.0 mg/kg/injection, schedule: Q04DX003 (ip), vehicle: saline): 166 % of control
T/C (dose: 60.0 mg/kg/injection, schedule: Q04DX003 (ip), vehicle: saline): 107 % of control

O=C(O)CCc1cccc(O)c1
T/C (dose: 25.0 mg/kg/injection, schedule: Q04DX002 (ip), vehicle: saline): 111 % of control
T/C (dose: 50.0 mg/kg/injection, schedule: Q04DX002 (ip), vehicle: saline): 111 % of control
T/C (dose: 100.0 mg/kg/injection, schedule: Q04DX002 (ip), vehicle: saline): 101 % of control

Nc1nc(N)c(CCCCc2ccc([N+](=O)[O-])cc2)c(N)n1
T/C (dose: 100.0 mg/kg/injection, schedule: Q01DX009 (ip), vehicle: Klucel (hydroxypropylcellulose) (HPC)): 100 % of control
T/C (dose: 200.0 mg/kg/injection, schedule: Q01DX009 (ip), vehicle: Klucel (hydroxypropylcellulose) (HPC)): 102 % of control
T/C (dose: 400.0 mg/kg/injection, schedule: Q01DX009 (ip), vehicle: Klucel (hydroxypropylcellulose) (HPC)): 94 % of control

C(=Nc1cnc2sccc2c1)c1ccccc1
T/C [1]: 100 % of control
T/C [2]: 100 % of control
T/C [3]: 94 % of control

Cc1ccc(NC(=O)OCCOc2cc(C)c(Cl)c(C)c2)cc1[N+](=O)[O-]
T/C [4]: 87 % of control
T/C [5]: 101 % of control
T/C [6]: 90 % of control

C=C(Cl)CNN1CCOCC1
T/C (dose: 25.0 mg/kg/injection, schedule: Q01DX009 (ip), vehicle: saline with Tween-80): 96 % of control
T/C (dose: 25.0 mg/kg/injection, schedule: Q04DX003 (ip), vehicle: saline with Tween-80): 95 % of control
T/C [4]: 98 % of control
T/C (dose: 50.0 mg/kg/injection, schedule: Q04DX003 (ip), vehicle: saline with Tween-80): 97 % of control
T/C [5]: 114 % of control
T/C [7]: 98 % of control and 111 % of control
T/C [8]: 94 % of control

CCCOCNC(=O)c1cccnc1
T/C (dose: 100.0 mg/kg/injection, schedule: Q01DX001 (ip), vehicle: saline): 103 % of control
T/C (dose: 100.0 mg/kg/injection, schedule: Q01DX009 (ip), vehicle: saline): 97 % of control
T/C (dose: 200.0 mg/kg/injection, schedule: Q01DX001 (ip), vehicle: saline): 95 % of control
T/C (dose: 200.0 mg/kg/injection, schedule: Q01DX009 (ip), vehicle: saline): 94 % of control
T/C (dose: 400.0 mg/kg/injection, schedule: Q01DX001 (ip), vehicle: saline): 105 % of control
T/C (dose: 400.0 mg/kg/injection, schedule: Q01DX009 (ip), vehicle: saline): 103 % of control

CCC/C(=N/NC(=O)c1ccccc1)c1ccccc1
T/C (dose: 100.0 mg/kg/injection, schedule: Q04DX002 (ip), vehicle: Klucel (hydroxypropylcellulose) (HPC)): 110 % of control
T/C (dose: 200.0 mg/kg/injection, schedule: Q04DX002 (ip), vehicle: Klucel (hydroxypropylcellulose) (HPC)): 110 % of control
T/C (dose: 400.0 mg/kg/injection, schedule: Q04DX002 (ip), vehicle: Klucel (hydroxypropylcellulose) (HPC)): 100 % of control

CCC1CCNCC1
T/C (dose: 25.0 mg/kg/injection, schedule: Q01DX009 (ip), vehicle: saline): 113 % of control
T/C (dose: 50.0 mg/kg/injection, schedule: Q01DX009 (ip), vehicle: saline): 102 % of control

CCCCCCCCCCCCSC(=O)CCC(=O)O
T/C (dose: 50.0 mg/kg/injection, schedule: Q01DX009 (ip), vehicle: other): 102 % of control
T/C [9]: 108 % of control
T/C [1]: 97 % of control
T/C [10]: 97 % of control
T/C [2]: 103 % of control

CCC(=O)Nc1cccc(Cl)c1
T/C [5]: 97 % of control
T/C [1]: 97 % of control
T/C [6]: 103 % of control
T/C [2]: 97 % of control
T/C [3]: 108 % of control

COc1cc(NC(C)CCCN2C(=O)c3ccccc3C2=O)c2nc(-c3ccc(Cl)cc3)ccc2c1 (centres undefined)
T/C (dose: 50.0 mg/kg/injection, schedule: Q04DX003 (ip), vehicle: saline): 90 % of control
T/C [9]: 94 % of control
T/C [11]: 92 % of control
T/C [10]: 94 % of control
T/C [12]: 90 % of control
T/C (dose: 400.0 mg/kg/injection, schedule: Q01DX009 (ip), vehicle: other): 101 % of control
T/C [13]: 87 % of control

C[n+]1ccn(Cc2ccc([N+](=O)[O-])cc2)c1
T/C [7]: 171 % of control
T/C [8]: 90 % of control

CCCCN(CCCC)S(=O)(=O)CCCC
T/C [11]: 91 % of control
T/C [12]: 103 % of control
T/C [13]: 94 % of control
